Publication PMC8355244, “A fragment-based approach identifies an allosteric pocket that impacts malate dehydrogenase activity” (Communications Biology, 2021)
Several values for one entry are separate records, joined by “and”; a condition that tells them apart may be missing. Identical values can stand only once. Like-named read-outs stand apart in the source and are kept apart here.

Tests used:
WT PfMDH = biological target: T1, WT PfMDH (Plasmodium falciparum, UniProt Q6VVP7); assay: Activity screening of 4DT / 4-phenylthiazol-2-amine derivatives (oxidation of malate, absorbance at 340 nm); assay type: biochemical; conditions: for inhibition at 500 µM: Dunnett's multiple comparisons test, read-out: Mean Diff. (positive control vs. compound); for Slope repl1 / Slope repl2: linear regression slope of absorbance 340 nm vs time; for Slope normalized repl1: slope relative to control = 1, replicate 1; for Slope normalized repl2: slope relative to control = 1, replicate 2
T1 construct: The full-length WT PfMDH gene was cloned into pETM-13; made in house; host or cells: E. coli Rosetta 2 (DE3) pLysS
T1 sequence (Q6VVP7 entry or part of it): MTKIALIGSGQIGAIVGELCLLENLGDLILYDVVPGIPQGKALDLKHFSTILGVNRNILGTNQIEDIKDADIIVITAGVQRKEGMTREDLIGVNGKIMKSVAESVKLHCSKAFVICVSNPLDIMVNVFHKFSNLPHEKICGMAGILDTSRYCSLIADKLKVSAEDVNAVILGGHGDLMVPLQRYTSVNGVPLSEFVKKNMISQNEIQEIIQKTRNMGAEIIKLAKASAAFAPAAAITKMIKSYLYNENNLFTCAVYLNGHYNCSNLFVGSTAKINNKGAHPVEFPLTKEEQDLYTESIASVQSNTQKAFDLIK
Protocol: The oxidation of malate to oxaloacetate was assayed spectrophotometrically in flat-bottomed Corning 96-well microplates in a total volume of 250.0 µl in 50 mM glycine buffer pH 10.2[24] with an additional 400 mM NaCl for protein stability. The increase of absorbance at 340 nm was recorded in kinetic mode using a Tecan Spark multimode microplate reader at 298 K. A mastermix of 50 mM NAD+ and 44 μM PfMDH was used for both the screening and kinetics experiments. The final concentration of protein and cofactor were […], respectively. Positive control groups were set (absence of compound) in the same plate as the treated group. The absorbance from the background noise was subtracted from the data and then a linear regression model was employed in order to get the line slope from the first 5 min of the reaction. The percentage of enzymatic activity has been calculated as described by Eq. (1)1 enzymeactivity(%)=slopetreated/slopepositivecontrol*100
1.3 µL of derivatives of 4-phenylthiazol-2-amine in 100% DMSO were mixed with 237.7 µL of a mastermix of WT PfMDH previously incubated with NAD+. The final compound concentration used in this screening was 500 µM in the presence of 0.5% (v/v) DMSO. The microplate was sealed with silver foil for 1-h incubation at 25–35 °C. Finally, reactions in both the samples and control wells were started upon the addition of 13.0 µL of 5 mM malate). At the end of the experiments, the reaction of the plate was spectrophotometrically assayed at 600 nm in order to identify turbidity due to the low solubility of the compound. All measurements were performed in duplicate.

PfMDH = biological target: T2, PfMDH (Plasmodium falciparum, UniProt Q6VVP7); assay: Thermal shift assay (TSA); assay type: binding; conditions: for TSA melting curve raw signal: triplicate columns; for TSA melting curve raw fluorescence signal: three replicate columns
T2 construct: The full-length WT PfMDH gene was cloned into pETM-13; made in house; host or cells: E. coli Rosetta 2 (DE3) pLysS
T2 sequence (Q6VVP7 entry or part of it): as above
Protocol: The TSA experiment was conducted in a BioRad CSX 96 (Biorad). Each reaction consisted of 1 mM of compound (100 mM stock in 100% (v/v) DMSO) and 10 μM PfMDH in 100 mM Na–phosphate buffer pH 7.4, 400 mM NaCl, and 10× Sypro Orange (Invitrogen) for a total volume of 100 μl. Control experiments were performed with 1% (v/v) DMSO. Inflection points were determined using BioRad CFX96™ control software. Generally, a temperature increase of over 1 °C is interpreted as a result of the stabilization of the protein-ligand interaction. On the contrary, a negative shift is considered a destabilization caused by the fragment.

[1] = 500 µM compound, Dunnett test details, positive control mean 100, n 2, read-out: Mean 2 (mean % enzymatic activity of treated group)
[2] = 500 µM compound, control 100%, replicate 1, read-out: % enzymatic activity repl1
[3] = 500 µM compound, control 100%, replicate 2, read-out: % enzymatic activity repl2

Nc1nc(-c2ccc(F)cc2)cs1 [compound 9a]
remaining activity at 500 µM (WT PfMDH; [1]): 51% | inhibition at 500 µM (WT PfMDH; 500 µM compound): 49% | remaining activity at 500 µM (WT PfMDH; [2]): 57% | remaining activity at 500 µM (WT PfMDH; [3]): 45% | Slope repl1 (WT PfMDH; 500 µM compound, replicate 1): 0.01901 | Slope repl2 (WT PfMDH; 500 µM compound, replicate 2): 0.01582 | Slope normalized repl1 (WT PfMDH; 500 µM compound): 0.5707 | Slope normalized repl2 (WT PfMDH; 500 µM compound): 0.4515 | remaining activity at 500 µM (WT PfMDH; read-out: enzyme activity): 51%

Nc1nc(-c2ccc(Cl)c(Cl)c2)cs1 [7a]
remaining activity at 500 µM (WT PfMDH; [1]): 24% | inhibition at 500 µM (WT PfMDH; 500 µM compound): 76.5% | remaining activity at 500 µM (WT PfMDH; [2]): 26% | remaining activity at 500 µM (WT PfMDH; [3]): 21% | Slope repl1 (WT PfMDH; 500 µM compound, replicate 1): 0.008711 | Slope repl2 (WT PfMDH; 500 µM compound, replicate 2): 0.007289 | Slope normalized repl1 (WT PfMDH; 500 µM compound): 0.2615 | Slope normalized repl2 (WT PfMDH; 500 µM compound): 0.208 | remaining activity at 500 µM (WT PfMDH; read-out: enzyme activity): 23%

O=C(O)c1nc(-c2ccccc2)cs1 [4a]
remaining activity at 500 µM (WT PfMDH; [1]): 65% | inhibition at 500 µM (WT PfMDH; 500 µM compound): 35% | remaining activity at 500 µM (WT PfMDH; [2]): 64% | remaining activity at 500 µM (WT PfMDH; [3]): 66% | Slope repl1 (WT PfMDH; 500 µM compound, replicate 1): 0.02124 | Slope repl2 (WT PfMDH; 500 µM compound, replicate 2): 0.02324 | Slope normalized repl1 (WT PfMDH; 500 µM compound): 0.6376 | Slope normalized repl2 (WT PfMDH; 500 µM compound): 0.6632 | remaining activity at 500 µM (WT PfMDH; read-out: enzyme activity): 65%

CC(C)c1ccc(-c2csc(N)n2)cc1 [4PA-iPr]
TSA melting curve raw signal (PfMDH; Temperature 25): 8994.553 and 9647.617 and 6438.185 | TSA melting curve raw signal (PfMDH; Temperature 28.5): 8708.714 and 9422.913 and 6243.713 | TSA melting curve raw signal (PfMDH; Temperature 29): 8666.326 and 9387.251 and 6213.386 | TSA melting curve raw signal (PfMDH; Temperature 29.5): 8621.607 and 9346.814 and 6180.231 | TSA melting curve raw signal (PfMDH; Temperature 30): 8573.486 and 9300.135 and 6142.94 | TSA melting curve raw signal (PfMDH; Temperature 30.5): 8522.699 and 9247.509 and 6102.88 | TSA melting curve raw signal (PfMDH; Temperature 31): 8469.615 and 9188.155 and 6059.768 | TSA melting curve raw signal (PfMDH; Temperature 31.5): 8414.733 and 9123.458 and 6015.201 | TSA melting curve raw signal (PfMDH; Temperature 32): 8359.407 and 9056.051 and 5970.18 | TSA melting curve raw signal (PfMDH; Temperature 32.5): 8304.924 and 8988.081 and 5926.995 | TSA melting curve raw signal (PfMDH; Temperature 33): 8252.482 and 8921.905 and 5886.489 | TSA melting curve raw signal (PfMDH; Temperature 33.5): 8202.645 and 8859.372 and 5849.818 | TSA melting curve raw signal (PfMDH; Temperature 34): 8155.604 and 8800.883 and 5816.694 | TSA melting curve raw signal (PfMDH; Temperature 34.5): 8111.732 and 8745.628 and 5787.575 | TSA melting curve raw signal (PfMDH; Temperature 35): 8070.534 and 8693.896 and 5761.965 | TSA melting curve raw signal (PfMDH; Temperature 35.5): 8031.026 and 8644.443 and 5738.964 | TSA melting curve raw signal (PfMDH; Temperature 36): 7993.542 and 8596.911 and 5718.436 | TSA melting curve raw signal (PfMDH; Temperature 36.5): 7957.673 and 8551.007 and 5700.528 | TSA melting curve raw signal (PfMDH; Temperature 37): 7922.464 and 8507.049 and 5684.445 | TSA melting curve raw signal (PfMDH; Temperature 37.5): 7887.874 and 8463.879 and 5669.608 | TSA melting curve raw signal (PfMDH; Temperature 38): 7853.441 and 8420.795 and 5655.816 | TSA melting curve raw signal (PfMDH; Temperature 38.5): 7818.479 and 8377.106 and 5642.728 | TSA melting curve raw signal (PfMDH; Temperature 39): 7782.8 and 8332.642 and 5629.831 | TSA melting curve raw signal (PfMDH; Temperature 39.5): 7746.169 and 8286.504 and 5617.536 | TSA melting curve raw signal (PfMDH; Temperature 40): 7708.198 and 8238.766 and 5605.837 | TSA melting curve raw signal (PfMDH; Temperature 40.5): 7669.164 and 8190.253 and 5594.748 | TSA melting curve raw signal (PfMDH; Temperature 41): 7629.283 and 8141.701 and 5584.57 | TSA melting curve raw signal (PfMDH; Temperature 41.5): 7588.559 and 8093.153 and 5575.514 | TSA melting curve raw signal (PfMDH; Temperature 42): 7547.254 and 8045.202 and 5567.299 | TSA melting curve raw signal (PfMDH; Temperature 42.5): 7505.687 and 7998.361 and 5560.186 | TSA melting curve raw signal (PfMDH; Temperature 43): 7464.06 and 7952.024 and 5554.6 | TSA melting curve raw signal (PfMDH; Temperature 43.5): 7421.867 and 7905.832 and 5550.504 | TSA melting curve raw signal (PfMDH; Temperature 44): 7379.597 and 7859.513 and 5547.899 | TSA melting curve raw signal (PfMDH; Temperature 44.5): 7337.446 | TSA melting curve raw fluorescence signal (PfMDH; Temperature 73.5): 5613.749 and 6203.164 and 5886.042 | TSA melting curve raw fluorescence signal (PfMDH; Temperature 74): 5569.101 and 6153.132 and 5854.081 | TSA melting curve raw fluorescence signal (PfMDH; Temperature 74.5): 5525.043 and 6104.144 and 5823.779 | TSA melting curve raw fluorescence signal (PfMDH; Temperature 75): 5482.121 and 6056.683 and 5794.617 | TSA melting curve raw fluorescence signal (PfMDH; Temperature 75.5): 5439.984 and 6011.409 and 5766.404 | TSA melting curve raw fluorescence signal (PfMDH; Temperature 76): 5398.991 and 5968.463 and 5738.594 | TSA melting curve raw fluorescence signal (PfMDH; Temperature 76.5): 5359.122 and 5928.32 and 5710.64 | TSA melting curve raw fluorescence signal (PfMDH; Temperature 77): 5320.849 and 5890.984 and 5682.195 | TSA melting curve raw fluorescence signal (PfMDH; Temperature 77.5): 5284.278 and 5856.438 and 5652.603 | TSA melting curve raw fluorescence signal (PfMDH; Temperature 78): 5250.129 and 5824.453 and 5622.025 | TSA melting curve raw fluorescence signal (PfMDH; Temperature 78.5): 5218.737 and 5795.085 and 5590.553 | TSA melting curve raw fluorescence signal (PfMDH; Temperature 79): 5190.081 and 5767.8 and 5558.166 | TSA melting curve raw fluorescence signal (PfMDH; Temperature 79.5): 5164.369 and 5742.56 and 5524.814 | TSA melting curve raw fluorescence signal (PfMDH; Temperature 80): 5141.29 and 5718.857 and 5491.376 | TSA melting curve raw fluorescence signal (PfMDH; Temperature 80.5): 5120.384 and 5696.2 and 5457.362 | TSA melting curve raw fluorescence signal (PfMDH; Temperature 81): 5101.31 and 5674.042 and 5422.806 | TSA melting curve raw fluorescence signal (PfMDH; Temperature 81.5): 5083.427 and 5652.313 and 5387.856 | TSA melting curve raw fluorescence signal (PfMDH; Temperature 82): 5065.661 and 5630.45 and 5352.463 | TSA melting curve raw fluorescence signal (PfMDH; Temperature 82.5): 5047.726 and 5608.308 and 5316.196 | TSA melting curve raw fluorescence signal (PfMDH; Temperature 83): 5028.992 and 5585.969 and 5279.628 | TSA melting curve raw fluorescence signal (PfMDH; Temperature 83.5): 5009.082 and 5563.202 and 5242.696 | TSA melting curve raw fluorescence signal (PfMDH; Temperature 84): 4988.359 and 5539.6 and 5205.226 | TSA melting curve raw fluorescence signal (PfMDH; Temperature 84.5): 4967.168 and 5515.215 and 5167.448 | TSA melting curve raw fluorescence signal (PfMDH; Temperature 85): 4945.239 and 5489.971 and 5129.648 | TSA melting curve raw fluorescence signal (PfMDH; Temperature 85.5): 4923.212 and 5463.869 and 5091.727 | TSA melting curve raw fluorescence signal (PfMDH; Temperature 86): 4900.827 and 5436.832 and 5053.765 | TSA melting curve raw fluorescence signal (PfMDH; Temperature 86.5): 4877.872 and 5409.317 and 5016.032 | TSA melting curve raw fluorescence signal (PfMDH; Temperature 87): 4854.433 and 5381.152 and 4978.26 | TSA melting curve raw fluorescence signal (PfMDH; Temperature 87.5): 4830.501 and 5352.422 and 4939.972 | TSA melting curve raw fluorescence signal (PfMDH; Temperature 88): 4805.564 and 5322.651 and 4900.899 | TSA melting curve raw fluorescence signal (PfMDH; Temperature 88.5): 4779.827 and 5291.937 and 4861.053 | TSA melting curve raw fluorescence signal (PfMDH; Temperature 89): 4753.311 and 5260.016 and 4820.436 | TSA melting curve raw fluorescence signal (PfMDH; Temperature 89.5): 4725.882 and 5227.256 and 4779.347 | TSA melting curve raw fluorescence signal (PfMDH; Temperature 90): 4698.144
